{"source": "patent US20090252814A1", "about": "“USE OF XENON FOR ORGAN PROTECTION” (priority 2005, published 2009)", "key": {"VEGF": {"test_system": "VEGF", "assay": "VEGF expression in adult mice brains (western blot)", "type": "in vivo, C57BL/6J mice", "conditions": "75% xenon and 25% oxygen 2 h, harvested 0-48 h after", "experimental": "Studies were performed on 8 to 12-wk-old C57BL/6J mice (Jackson Labs, Bar Harbor, Me.) that were fed a standard laboratory diet. All procedures were approved by the Home Office.\n(§1) The mice were exposed to 75% xenon and 25% oxygen for two hours. The xenon gas was administered to the mice by inhalation. The brains of said adult mice were then harvested as described below between 0-48 hours after exposure to the xenon gas.\n(§2) The tissues were homogenised and western blots of adult mice brain samples were carried out as described in Example 1.\nThe primary antibodies were anti-α-tubulin antibody, and monoclonal mouse anti-VEGF antibody."}, "kidney": {"test_system": "kidney", "assay": "Ischaemic-reperfusion renal injury with xenon preconditioning", "type": "in vivo, C57BL/6J mice", "experimental": "(§3) Studies were performed on 8- to 12-wk-old C57BL/6J mice (Jackson Labs, Bar Harbor, Me.) that were fed a standard laboratory diet. All procedures were approved by the Home Office.\nThe groups of mice were treated as follows: • Naïve=no anaesthesia and no surgery of any kind was carried out on these mice; • Sham=anaesthesia and surgery was carried out on these mice but there was no clamping of the renal pedicle; • Control (or P20)=anaesthesia and surgery together with clamping of the renal pedicle was carried out on these mice but there was but no xenon preconditioning; • XPD group (or XePC24)=mice were exposed to 75% xenon for two hours (XPD=preconditioned with xenon). The xenon gas was administered to the mice by inhalation. Twenty-four hours after this preconditioning the mice then underwent anaesthesia and surgery together with clamping of the renal pedicle; and • Xe=mice were exposed to 75% xenon for two hours but no surgery together with clamping of the renal pedicle was carried out.\nRenal injury, as described below, was carried out 24 hours after the mice were exposed to xenon. […]\nKidneys were removed from mice immediately after they were killed, cut in half, fixed in neutral-buffered formalin, and embedded in paraffin. Sections (5 μm thick) of formalin-fixed, paraffin-embedded tissue were mounted on glass slides and stained with haematoxylin-eosin for general histology and quantitative analysis. All tissues were evaluated without investigator knowledge of the group from which it originated.\nFor quantification of morphologic data, more than 10 low-magnification fields (×200) including both cortex and outer medulla were randomly selected. […] The total score for each kidney was calculated by addition of all 10 scores (maximum score 30). The histology score was assessed in a blinded manner in each group. […] mice were assessed for the control and XPD groups and four mice were assessed for each of the naïve and sham groups.\nMean±SEM are presented. The significant difference in mean values was evaluated by either a t test or by Dunnett paired t test for multiple comparisons. […]"}, "[1]": {"conditions": "xenon gas; cited from earlier work"}, "PHD2": {"test_system": "PHD2", "assay": "PHD2 expression in adult mice brains (western blot)", "type": "in vivo, C57BL/6J mice", "conditions": "75% xenon and 25% oxygen 2 h, harvested 0-48 h after", "experimental": "as §3, §1, §2\nThe primary antibody was monoclonal mouse anti-PHD2 antibody."}, "brain": {"test_system": "brain", "conditions": "administered 4 hours after hypoxic-ischaemic injury, neonatal rats; cited from earlier work"}, "[2]": {"conditions": "in combination with oxygen; cited from earlier work"}, "HIF-1α": {"test_system": "HIF-1α", "assay": "HIF-1α expression in the kidney after exposure to xenon (western blot)", "type": "in vivo, C57BL/6J mice", "conditions": "adult mice, 75% xenon 2 h by inhalation, kidneys harvested 0-24 h after", "experimental": "Studies were performed on adult 8- to 12-wk-old C57BL/6J mice (Jackson Labs, Bar Harbor, Me.) that were fed a standard laboratory diet. All procedures were approved by the Home Office.\nThe mice were exposed to 75% xenon for two hours. The xenon gas was administered to the mice by inhalation. The kidneys of said mice were then harvested as described below between 0-24 hours after exposure to the xenon gas.\nOnce sacrificed, the kidneys were harvested and frozen at −80° C. […] Protein concentration in the supernatant was determined by DC (detergent-compatible) protein assay (Bio-Rad, Herts, UK), based on the Lowry method. […]\nAfter washing in TBS-T the membrane was incubated with the appropriate goat-derived horseradish peroxidase-conjugated secondary antibody at room temperature for 1½ hours to detect the primary antibodies. The immunoreactive bands were visualised with the enhanced chemiluminescence system and detected on X-ray film. The results were quantified by densitometry as an x-fold increase relative to the control without xenon—the amount of protein applied was normalised by the densitometry of the tubulin (which was unaltered by the intervention itself). […]"}, "[3]": {"conditions": "XePC24 group compared to P20 group (no preconditioning)"}}, "data": [{"compound": "[Xe]", "note": "[xenon]", "values": [{"measurement": "expression of VEGF", "setting": "VEGF", "value": "time-dependent increase"}, {"measurement": "morphologic injury in the kidney", "setting": "kidney; 75% xenon 2 h, 24 h before 20 min ischaemia and 24 h reperfusion, histology score", "value": "decreased"}, {"measurement": "amount of creatinine in blood plasma", "setting": "kidney; [3]", "value": "significantly decreases"}, {"measurement": "amount of urea nitrogen in blood plasma", "setting": "kidney; [3]", "value": "significantly decreases"}, {"measurement": "specific gravity or density", "setting": "[1]", "value": 5.887, "unit": "g/L"}, {"measurement": "expression of PHD2", "setting": "PHD2", "value": "time-dependent reduction"}, {"measurement": "neuroprotection by combination of xenon and hypothermia", "setting": "brain", "value": "synergistic neuroprotection"}, {"measurement": "concentrations exhibiting anaesthetic effects", "setting": "[2]", "value": "10-70 vol. %"}, {"measurement": "HIF-1α expression in the kidneys", "setting": "HIF-1α", "value": "time-dependent increase"}]}]}
